Test results taken from US9480701B2, “Low anticoagulant heparins” (priority 2012, dated 2016).
“Also recorded” adds a separate entry of the source. Read-outs that look alike come from different tables or passages of the source.

Legend:
[1] = Rat tail incision bleeding time after i.v. dosing; type: in vivo, Sprague-Dawley rats
Protocol: (§1) Heparin and a LMWH preparation (Fragmin) were also studied for comparison. Basic test procedures were as follows:
The incision was 9 mm long and 1 mm deep and was standardized using a template device. Blood was blotted from the incision until bleeding stopped. The time during which visible bleeding could be observed was measured, for up to 25 minutes. The longer the bleeding time, the more pronounced the anti-coagulant effects of the administered agent.
(§2) The following compounds and doses were tested (each in groups of 8 rats) in juvenile rats of age 14±1 days: • 2. Saline: (Negative Control) • 3.

[2] = Coagulation parameters (APTT, PT) in citrate plasma of dosed rats; type: in vivo, Sprague-Dawley rats
Protocol: as §1
Forty minutes after dosing, the rats were sacrificed by full bleeding. Citrate stabilized plasma was prepared from the blood. Plasma was stored in aliquots of 1 or 0.5 mL at −70° C. until analysis of APTT and PT.
as §2

[3] = tested on: rosettes of the parasite FCR3S1.2; experiment: Rosette disruption in vitro, parasite clone FCR3S1.2 and parasite cultures; type: cell-based, Plasmodium falciparum; details: for Disruption of rosettes: parasite FCR3S1.2, FIG. 5
[4] = tested on: binding of pE to endothelial cells; experiment: Cytoadherence blocking and disruption, dynamic incubation; type: cell-based, Plasmodium falciparum; details: for Binding of pE to endothelial cell inhibited or reversed: parasite FCR3S1.2, FIG. 7
[5] = tested on: merozoite invasion of erythrocytes (P. falciparum, parasite FCR3S1.2); experiment: Merozoite invasion inhibition assay; type: cell-based; details: for Merozoite invasion into fresh red blood cells inhibited: parasite FCR3S1.2, FIG. 8
Protocol: The merozoite invasion inhibition assay was performed with chemically modified heparin and unfractionated heparin Mature pE (trophozoite) synchronized P. falciparum cultures with a parasitemia of 0.4% and a hematocrit of 2% were grown in micro-cultures (100 ul) in the presence of increasing concentrations of chemically modified heparin or unfractionated heparin at 37° C. for 24-30 h. In order to quantify the parasitemia, the samples were stained for 10 s with acridine orange and then analyzed using a FACS instrument from Becton Dickinson. A minimum of 50,000 cells per sample were collected.

[6] = tested on: factor Xa; details: for comparison; not said whether anti-factor Xa or anti-factor IIa; cited from earlier work
[7] = target: factor IIa (Homo sapiens, UniProt P00734)
[8] = tested on: factor Xa
[9] = tested on: rosettes of fresh isolates of children with severe, complicated or mild malaria; details: 100 and 1000 μg/ml, FIG. 6
[10] = tested on: P. falciparum-infected erythrocytes sequestered in the lungs
Protocol: Human pE were cultivated in vitro and enriched to a parasitemia above 70%. Prior to injection into the animals, human infected erythrocytes were radioactively labeled with ^99mTc. The rats were anaesthetized and the labeled pE erythrocytes were injected intravenously into the tail vein. […] The distribution of the labeled cells was monitored using a gamma camera for 30 min. The relative amount of labeled cells sequestered in the lungs was calculated by comparing the activity of excised lungs to that of the whole animal.

[11] = rat bleeding model, normalized to unfractionated heparin = 1

Heparin [reference compound]
Relative Doses (estimated equipotent relative doses), Bleeding time ([1]; rat, in vivo): 1 | Anti-coagulant effect (bleeding time and coagulation parameters) ([1]; rat, in vivo, iv): profound effect on all parameters | Relative Doses (estimated equipotent relative doses), APTT ([2]; rat, in vivo): 1 | Disruption of rosettes [3]: dose dependent manner | Binding of pE to endothelial cell inhibited or reversed [4]: dose dependent manner | Merozoite invasion into fresh red blood cells inhibited [5]: dose dependent manner | Specific anti-coagulant activity, value corresponding to Table 5 [6]: at least 180 IU/mg

sevuparin sodium [DF02]
Anti-coagulant effect (bleeding time and coagulation parameters) ([1]; adult rats, i.v.): low anti-coagulant effect | Anti-coagulant effect (bleeding time and coagulation parameters) ([1]; juvenile rats, age 14±1 days): low anti-coagulant effect | Relative Doses (estimated equipotent relative doses), Bleeding time [1, 11]: 30-50 | Effect on PT ([2]; adult rats, i.v.): too weak to allow for comparative estimates | Effect on PT ([2]; juvenile rats, age 14±1 days): weak | Relative Doses (estimated equipotent relative doses), APTT [2, 11]: 30-40 | Disruption of rosettes at highest concentration ([3]; 1000 μg/ml, with some parasites): total or close to total disruption of rosettes | Disruption of rosettes [3]: dose dependent manner | Cytoadherence disruption: reduction of binding ([4]; pE adhered to the endothelium before incubation, FIG. 7): Up to 80% | Cytoadherence blocking: binding of pE blocked compared with untreated samples ([4]; pE and substance added simultaneously to the endothelium): Up to 80% | Binding of pE to endothelial cell inhibited or reversed [4]: dose dependent manner | Inhibitory effect on merozoite invasion compared with heparin ([5]; in vitro): equal potency per mg to heparin; also recorded: equal to those of standard heparin | Merozoite invasion into fresh red blood cells inhibited [5]: dose dependent manner | Anticoagulant FIIa activity ([7]; drug substance Batch 1): 4.6 IU/mg | Anticoagulant FIIa activity ([7]; drug substance Batch 2): 5.0 IU/mg | Anticoagulant FIIa activity ([7]; drug substance Batch 3): 3.8 IU/mg | Anticoagulant activity anti-factor Xa ([8]; drug substance Batch 1): 3.9 IU/mg | Anticoagulant activity anti-factor Xa ([8]; drug substance Batch 2): 4.9 IU/mg | Anticoagulant activity anti-factor Xa ([8]; drug substance Batch 3): 5.5 IU/mg | Sensitivity of rosettes of fresh isolates to treatment [9]: sensitive | Sequestration of infected erythrocytes in the lungs of rats ([10]; FIG. 9): can be inhibited | Retention of uninfected labeled human erythrocytes, co-injection versus no substance ([10]; rat): No difference was seen
